# Measurements published in patent publication US20160024127A1, “COMPOUNDS AND USES THEREOF FOR THE MODULATION OF HEMOGLOBIN” (GLOBAL BLOOD THERAPEUTICS, INC., priority 2013, published 2016).
# Assay: Pharmacokinetics after oral administration of the monophosphate prodrug to rats (blood and plasma)
# Format: in vivo
# Procedure: A sodium salt of the monophosphate prodrug compound (Formula (V-B)) was administered orally to rats in a dose of 10 mg/kg (5 mL/kg). The vehicle administered was dimethylacetamide:PEG400:30% HβCD (5:25:70). The pharmacokinetic results are tabulated below and graphically illustrated in FIG. 1.
SMILES,"whole blood Cmax following administration of the compound of formula (III), compared with Cmax after the monophosphate prodrug (compound of formula (III) administered at the same dose)","conversion of the prodrug to compound of formula (III) (oral, 10 mg/kg, rats)"
"CC(C)n1nccc1-c1ncccc1COc1cccc(O)c1C=O [Formula (III), 2-hydroxy-6-([2-[1-(propan-2-yl)-1H-pyrazol-5-yl]pyridin-3-yl]methoxy)benzaldehyde]",equivalent,–
"CC(C)n1nccc1-c1ncccc1COc1cccc(OP(=O)(O)O)c1C=O [Formula (V-B), 2-formyl-3-((2-(1-isopropyl-1H-pyraol-5-yl)pyridin-3-yl)methoxy)phenyl dihydrogen phosphate]",–,efficiently con veiled to compound of formula (III)
